The structures appear in SMILES notation.

This test deals with T1, human PKCθ full length enzyme (Homo sapiens, UniProt Q04759).
T1 construct: human PKCθ full length enzyme (Panvera Catalog No. P2996); purchased Panvera P2996
The experiment in a line: PKCθ IMAP Assay. Type of test: biochemical. Particulars: average value when one or more samples were tested; ATP 6 uM, PKCθ 1 nM. Summed up:
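IMAP fluorescence polarization after 20 min with binding beads measured phosphorylation of 100 nM 5FAM-peptide. Reactions held 1 nM full-length human PKCθ, 6 uM ATP, 5% DMSO and DTT-containing buffer, 25 min at room temperature. Compounds tested as 2:1 serial dilutions; controls lacked ATP or enzyme.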

T1 sequence (Q04759 whole entry): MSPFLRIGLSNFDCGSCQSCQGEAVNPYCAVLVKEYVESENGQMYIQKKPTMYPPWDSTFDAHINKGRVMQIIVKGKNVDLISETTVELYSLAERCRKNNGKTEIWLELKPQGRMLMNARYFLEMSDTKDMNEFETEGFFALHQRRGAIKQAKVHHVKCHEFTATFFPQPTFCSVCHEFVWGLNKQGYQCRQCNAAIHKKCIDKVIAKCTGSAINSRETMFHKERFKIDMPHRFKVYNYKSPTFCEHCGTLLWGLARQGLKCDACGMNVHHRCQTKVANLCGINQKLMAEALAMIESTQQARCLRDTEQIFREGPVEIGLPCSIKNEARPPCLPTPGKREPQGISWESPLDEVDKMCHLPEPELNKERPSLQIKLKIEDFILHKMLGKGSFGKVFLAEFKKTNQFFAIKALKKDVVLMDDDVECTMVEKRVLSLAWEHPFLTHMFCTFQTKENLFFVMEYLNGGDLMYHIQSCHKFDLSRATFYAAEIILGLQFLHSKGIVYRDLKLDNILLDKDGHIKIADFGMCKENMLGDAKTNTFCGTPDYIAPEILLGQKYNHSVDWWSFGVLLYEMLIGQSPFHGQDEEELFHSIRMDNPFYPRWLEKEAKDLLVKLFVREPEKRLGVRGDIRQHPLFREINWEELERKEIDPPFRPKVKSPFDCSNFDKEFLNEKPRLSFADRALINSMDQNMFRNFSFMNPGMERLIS

As to `Cc1c(Nc2c(C#N)cnc3sc(C#Cc4cccc(CN(C)C)n4)cc23)ccc2[nH]ccc12` [Compound 220, 2-({6-[(dimethylamino)methyl]pyridin-2-yl}ethynyl)-4-(4-methyl-1H-indol-5-ylamino)thieno[2,3-b]pyridine-5-carbonitrile], the midpoint of inhibition, the IC50, lay at 14 nM.

Take `COc1ccc(C)cc1-c1cc2c(Nc3ccc4[nH]ccc4c3C)c(C#N)cnc2s1` [Compound 366, 2-(2-methoxy-5-methylphenyl)-4-[(4-methyl-1H-indol-5-yl)amino]thieno[2,3-b]pyridine-5-carbonitrile]: the IC50 (as a rule, the point on the concentration scale where inhibition reaches its midpoint) turned out to be 106 nM.

`Cc1c(Nc2c(C#N)cnc3sc(-c4ccccc4OC[C@@H](O)CO)cc23)ccc2[nH]ccc12` [Compound 492, 2-(2-{[(2S)-2,3-dihydroxypropyl]-oxy}phenyl)-4-[(4-methyl-1H-indol-5-yl)amino]thieno[2,3-b]pyridine-5-carbonitrile] returned an IC50 of 50 nM.

The molecule `N#Cc1cnc2sc(-c3ccc(S(N)(=O)=O)cc3)cc2c1Nc1ccc2[nH]ccc2c1` [Compound 242, 4-[5-cyano-4-(1H-indol-5-ylamino)thieno[2,3-b]pyridin-2-yl]benzenesulfonamide] had an IC50 of 380 nM.

`Cc1c(Nc2c(C#N)cnc3sc(-c4ccc(OC[C@@H](C)O)cc4)cc23)ccc2[nH]ccc12` [Compound 489, 2-(4-{[(2R)-2-hydroxypropyl]-oxy}phenyl)-4-[(4-methyl-1H-indol-5-yl)amino]thieno[2,3-b]pyridine-5-carbonitrile] registered an IC50 of 175 nM.

The molecule `COc1ccccc1-c1cc2c(Nc3ccc4[nH]ccc4c3C)c(C#N)cnc2s1` [Compound 364, 2-(2-methoxyphenyl)-4-[(4-methyl-1H-indol-5-yl)amino]thieno[2,3-b]pyridine-5-carbonitrile] returned an IC50 of 22 nM.

`Cc1c(I)sc2ncc(C#N)c(Nc3ccc4[nH]ccc4c3)c12` [Compound 317, 4-(1H-Indol-5-ylamino)-2-iodo-3-methylthieno[2,3-b]pyridine-5-carbonitrile] gave an IC50 of 718 nM.

`CNS(=O)(=O)c1ccc(-c2sc3ncc(C#N)c(Nc4ccc5[nH]ccc5c4)c3c2C)cc1` [Compound 415, 4-[5-cyano-4-(1H-indol-5-ylamino)-3-methylthieno[2,3-b]pyridin-2-yl]-N-methylbenzenesulfonamide] came in with an IC50 of 642 nM.

Molecule `N#Cc1cnc2sc(-c3cccc(CNCCN4CCOCC4)c3)cc2c1Nc1ccc2[nH]ccc2c1` [Compound 170, 4-(1H-indol-5-ylamino)-2-(3-{[(2-morpholin-4-ylethyl)amino]methyl}phenyl)thieno[2,3-b]pyridine-5-carbonitrile] yielded an IC50 of 430 nM.

Regarding `COCc1ccccc1-c1cc2c(Nc3ccc4[nH]ccc4c3C)c(C#N)cnc2s1` [Compound 392, 2-[2-(methoxymethyl)phenyl]-4-[(4-methyl-1H-indol-5-yl)amino]thieno[2,3-b]pyridine-5-carbonitrile], half-maximal inhibition (IC50) required 177 nM.

Regarding `Cc1c(Nc2c(C#N)cnc3sc(-c4cc5cc(C=O)ccc5s4)cc23)ccc2[nH]ccc12` [Compound 374, 2-(5-formyl-1-benzothien-2-yl)-4-[(4-methyl-1H-indol-5-yl)amino]thieno[2,3-b]pyridine-5-carbonitrile], the IC50 is 140 nM.

Molecule `CC(C)c1c(I)sc2ncc(C#N)c(Nc3ccc4[nH]ccc4c3)c12` [Compound 321, 4-(1H-indol-5-ylamino)-2-iodo-3-isopropylthieno[2,3-b]pyridine-5-carbonitrile] showed an IC50 of 345 nM.

Turning to `Cc1c(Nc2c(C#N)cnc3sc(-c4cccc(C(=O)NCCN(C)C)c4)c(C)c23)ccc2[nH]ccc12` [Compound 429, 3-{5-cyano-3-methyl-4-[(4-methyl-1H-indol-5-yl)amino]thieno[2,3-b]pyridin-2-yl}-N-[2-(dimethylamino)ethyl]benzamide], the IC50 worked out at 60 nM.

For the molecule `Cc1c(Nc2c(C#N)cnc3sc(-c4cccc(S(C)(=O)=O)c4)cc23)ccc2[nH]ccc12` [Compound 375, 4-[(4-methyl-1H-indol-5-yl)amino]-2-[3-(methylsulfonyl)phenyl]thieno[2,3-b]pyridine-5-carbonitrile], the IC50 is 41 nM.

In turn, `Cc1c(Nc2c(C#N)cnc3sc(-c4ccc(NS(C)(=O)=O)cc4)c(C)c23)ccc2[nH]ccc12` [Compound 372, N-(4-{5-cyano-3-methyl-4-[(4-methyl-1H-indol-5-yl)amino]thieno[2,3-b]pyridin-2-yl}phenyl)methanesulfonamide] displayed an IC50 of 627 nM.

`Cc1c(Nc2c(C#N)cnc3sc(/C=C/C(N)=O)cc23)ccc2[nH]ccc12` [Compound 297, (2E)-3-{5-cyano-4-[(4-methyl-1H-indol-5-yl)amino]thieno[2,3-b]pyridin-2-yl}acrylamide] showed an IC50 of 12 nM.

In the case of `Cc1c(Nc2c(C#N)cnc3sc(-c4cccc(NCCN(C)C)c4)cc23)ccc2[nH]ccc12` [Compound 394, 2-(3-{[2-(dimethylamino)ethyl]amino}phenyl)-4-[(4-methyl-1H-indol-5-yl)amino]thieno[2,3-b]pyridine-5-carbonitrile], inhibition was half-maximal at 10 nM (IC50).

In turn, `Cc1c(Nc2c(C#N)cnc3sc(-c4cccnc4)cc23)ccc2[nH]ccc12` [Compound 438, 4-[(4-methyl-1H-indol-5-yl)amino]-2-pyridin-3-ylthieno[2,3-b]pyridine-5-carbonitrile] showed an IC50 of 14 nM.

As to `Cc1c(Nc2c(C#N)cnc3sc(-c4ccc(OC[C@@H](O)CO)cc4)cc23)ccc2[nH]ccc12` [Compound 487, 2-(4-{[(2S)-2,3-dihydroxypropyl]-oxy}phenyl)-4-[(4-methyl-1H-indol-5-yl)amino]thieno[2,3-b]pyridine-5-carbonitrile], the midpoint of inhibition, the IC50, lay at 41 nM.

`C=C(c1ccccc1)c1cc2c(Nc3ccc4[nH]ccc4c3)c(C#N)cnc2s1` [Compound 410, 4-(1H-indol-5-ylamino)-2-(1-phenylvinyl)thieno[2,3-b]pyridine-5-carbonitrile] gave an IC50 of 1050 nM.

For `Cc1c(Nc2c(C#N)cnc3sc(-c4nccn4C)cc23)ccc2[nH]ccc12` [Compound 432, 2-(1-methyl-1H-imidazol-2-yl)-4-[(4-methyl-1H-indol-5-yl)amino]thieno[2,3-b]pyridine-5-carbonitrile], inhibition was half-maximal at 49 nM (IC50).

`Cc1c(Nc2c(C#N)cnc3sc(C(=O)N4CCOCC4)cc23)ccc2[nH]ccc12` [Compound 255, 4-[(4-methyl-1H-indol-5-yl)amino]-2-(morpholin-4-ylcarbonyl)thieno[2,3-b]pyridine-5-carbonitrile] displayed an IC50 of 276 nM.

Turning to `CS(=O)(=O)Nc1cccc(-c2cc3c(Nc4ccc5[nH]ccc5c4)c(C#N)cnc3s2)c1` [Compound 359, N-{3-[5-cyano-4-(1H-indol-5-ylamino)thieno[2,3-b]pyridin-2-yl]phenyl}methanesulfonamide], the IC50 is 245 nM.

Take `CON(C)C(=O)c1cccc(-c2cc3c(Nc4ccc5[nH]ccc5c4)c(C#N)cnc3s2)c1` [Compound 344, 3-[5-cyano-4-(1H-indol-5-ylamino)thieno[2,3-b]pyridin-2-yl]-N-methoxy-N-methylbenzamide]: the IC50 was found to be 818 nM.

Regarding `N#Cc1cnc2sc(-c3ccccc3)cc2c1Nc1cnc2[nH]ccc2c1` [Compound 322, 2-phenyl-4-(1H-pyrrolo[2,3-b]pyridin-5-ylamino)thieno[2,3-b]pyridine-5-carbonitrile], the IC50 was determined as 4670 nM.
